From BindingDB's records for doi:10.1016/s0960-894x(99)00237-1 (Warner-Lambert, 1999)

What was measured:
[1] = target: T1, Human immunodeficiency virus type 1 protease (Human immunodeficiency virus 1, UniProt Q72874); experiment: In vitro binding affinity against HIV protease at pH 6.2.
[2] = target: T1, Human immunodeficiency virus type 1 protease; experiment: ChEBML_157707; settings: pH 6.2
Description: In vitro binding affinity against HIV protease at pH 6.2 was determined

[3] = target: T1, Human immunodeficiency virus type 1 protease; experiment: Binding affinity towards HIV protease was determined

Structure (SMILES) | IC50 [1] | Ki [2] | Ki [3]
Cc1cc(SC2C(=O)CC(CCc3ccc(O)cc3)(C(C)C)OC2=O)c(C(C)(C)C)cc1NC(=O)c1cccnc1 (configuration not stated) [N-(5-tert-Butyl-4-{4-hydroxy-6-[2-(4-hydroxy-phenyl)-ethyl]-6-isopropyl-2-oxo-5,6-dihydro-2H-pyran-3-ylsulfanyl}-2-methyl-phenyl)-nicotinamide] | 5.1 nM | – | –
Cc1cc(SC2C(=O)CC(CCc3ccc(O)cc3)(C(C)C)OC2=O)c(C(C)(C)C)cc1N(C)C (configuration not stated) [3-(2-tert-Butyl-4-dimethylamino-5-methyl-phenylsulfanyl)-4-hydroxy-6-[2-(4-hydroxy-phenyl)-ethyl]-6-isopropyl-5,6-dihydro-pyran-2-one] | 11 nM | – | –
Cc1cc(SC2C(=O)CC(CCc3ccc(O)cc3)(C(C)C)OC2=O)c(C(C)(C)C)cc1NC(=O)c1ccncc1 (configuration not stated) [N-(5-tert-Butyl-4-{4-hydroxy-6-[2-(4-hydroxy-phenyl)-ethyl]-6-isopropyl-2-oxo-5,6-dihydro-2H-pyran-3-ylsulfanyl}-2-methyl-phenyl)-isonicotinamide] | 5.1 nM | – | –
Cc1cc(SC2C(=O)C[C@@](CCc3ccc(O)cc3)(C(C)C)OC2=O)c(C(C)(C)C)cc1N (stereo partly drawn) [(6S)-3-[(4-amino-2-tert-butyl-5-methylphenyl)sulfanyl]-4-hydroxy-6-[2-(4-hydroxyphenyl)ethyl]-6-(propan-2-yl)-5,6-dihydro-2H-pyran-2-one] | – | 0.07 nM | 0.07 nM
Cc1cc(SC2C(=O)CC(CCc3ccccc3)(c3ccccc3)OC2=O)c(C(C)(C)C)cc1N (configuration not stated) [3-(4-Amino-2-tert-butyl-5-methyl-phenylsulfanyl)-4-hydroxy-6-phenethyl-6-phenyl-5,6-dihydro-pyran-2-one] | 11 nM | – | –
Cc1cc(SC2C(=O)CC(CCc3ccc(O)cc3)(C(C)C)OC2=O)c(C(C)(C)C)cc1NC(=O)c1ccccc1 (configuration not stated) [N-(5-tert-Butyl-4-{4-hydroxy-6-[2-(4-hydroxy-phenyl)-ethyl]-6-isopropyl-2-oxo-5,6-dihydro-2H-pyran-3-ylsulfanyl}-2-methyl-phenyl)-benzamide] | 13 nM | – | –
